Source: patent US6268385A, “Dry blend pharmaceutical formulations” (priority 2000, dated 2001)

Key:
Assay type in all cases: physicochemical
[1] = Solubility assessment as a function of HPβCD concentration
Method: Solubility studies were performed by the addition of a known mass of 5(6)-methoxy-2-[[(4-methoxy-3,5-dimethyl-2-pyridinyl)-methyl]sulfinyl]-1H- benzimidazole and/or HP CD to a given volume of solvent system. Solubilities were determined by observation, as the maximum concentration at which 5(6)-methoxy-2-[[(4-methoxy-3,5-dimethyl-2-pyridinyl)-methyl]sulfinyl]-1H- benzimidazole completely dissolved. Additionally, concentrations of 5(6)-methoxy-2-[[(4-methoxy-3,5-dimethyl-2-pyridinyl)-methyl]sulfinyl]-1H- benzimidazole and HP C D at set molar ratios were solubilized in systems of high pH (adjusted as high as 12.2, with 1N NaOH), the pH was adjusted (using 2N HCl) in a stepwise downward manner until precipitation occurred.
The solubility of 5(6)-methoxy-2-[[(4-methoxy-3,5-dimethyl-2-pyridinyl)-methyl]sulfinyl]-1H- benzimidazole was assessed as a function of HPβCD concentration in water.
The procedure according to Example 86 was repeated except that water with a borate buffer (pH of 8) was employed.
The procedure according to Example 86 was repeated except that water with a phosphate buffer (pH of 11) was employed.

[2] = FT-Raman quantitation of 5-/6-methoxy isomers in omeprazole API, partial least squares
Method: Nicolet Instruments Corp., Madison, Wis.). The present method is conducted in three steps: preparation of standards, establishing a standard curve, and analysis of samples. Typically, a minimum of 4 to 5 standards are prepared. […] In addition to the USP standard, it is necessary to use a standard which is very low in 5-methoxy isomer concentration, preferably in pure form, one which has a high concentration of 5-methoxy isomer such as in the range of about 40%, and a series of at least two other standards distributed over the range from about 5% to about 25%. To establish the standard curve, each standard is run in at least triplicate using the step and repeat sampling device operating in the continuous mode with 15 replicates for each standard preparation and 500 scans per replicate, using a resolution of 2 cm^-1, and a laser power of about 0.7 watt, under instrumental parameters set to generate an acceptable S/N. […] Using such an algorithm, the area percent of the 6-methoxy isomer of each standard having both the 5- and 6-methoxy isomer is determined. The standard deviation for each set of replicates is less than about 0.7% and the average standard deviation for the average of all runs and replicates of a given standard is less than about 0.7% or the resulting data should be investigated. […] Correlation coefficients should be at or above about 0.98 among all standards. Each API sample is then analyzed using the method similar to that described for establishing the standards, except at least triplicate preparations with at least five replicates per sample preparation, and at least 100 scans per replicate with triplicate preparations per sample. Using the above-referenced partial least squares analysis, the percent 6-methoxy isomer, and thus the percent 5-methoxy isomer is determined for each scan and the average of the 15 spectra is calculated. The standard deviation (SD) for each set of replicates is less than about 1.0%, and the average standard deviation of all runs and replicates of a given sample is less than about 1.0%. If the standard deviation is above 1.0%, the results should be investigated. High standard deviation values are an indication of variability which may be caused by small amounts of sample burning. If this is suspected, the preparation should be run again.

[3] = FT-Raman determination of 5-/6-methoxy isomers in omeprazole API, classical least squares; conditions: commercial API lots
Method: This method also used an FT-Raman spectrometer (Nicolet Nexus 670 with an FT-Raman accessory, 1064 nm laser, and a step and repeat sampling device). This method, too, is conducted in three stages: preparation of standards, establishing a standard curve, and analysis of samples. Typically a minimum of 4 to 5 standards are prepared. The present FT-Raman method for API and drug product analysis uses the same method set forth above to prepare and establish the standard curve, including preferred aspects, as the method set forth for the more quantitative API method relative to the number of preparations, replicates, and scans per replicate of each standard, resolution, sampling device, deconvolution of standard peaks, determination of peak area, and standard deviation for each set of replicates and the average of all runs and replicates of a given standard. […] In general, the method is performed by a ratio of a peak related to the 6-methoxy isomer (about 1627 cm^-1) to a suitable internal omeprazole band (about 1587 cm^-1). […] Correlation coefficients of the standard curve are at or above about 0.95 among all standards. […] Using the above-referenced corrected classical least squares analysis, the percent 6-methoxy isomer, and thus the percent 5-methoxy isomer, is determined for each scan, and the average of the 15 spectra is calculated.

[4] = commercial API lots, listed as 01
[5] = commercial API lots, listed as 02
[6] = commercial API lots, listed as 03

COc1ccc2[nH]c([S+]([O-])Cc3ncc(C)c(OC)c3C)nc2c1 (centres unmarked) [5(6)-methoxy-2-[[(4-methoxy-3,5-dimethyl-2-pyridinyl)-methyl]sulfinyl]-1H-benzimidazole]
solubility as a function of HPβCD concentration ([1]; borate buffer, pH of 8): increase linearly
solubility as a function of HPβCD concentration ([1]; phosphate buffer, pH of 11): increase linearly
solubility as a function of HPβCD concentration ([1]; water): increase linearly

COc1ccc2nc([S+]([O-])Cc3ncc(C)c(OC)c3C)[nH]c2c1 (centres unmarked) [Example 1, 6-methoxy-2-[[(4-methoxy-3,5-dimethyl-2-pyridinyl)-methyl]sulfinyl]-1H-benzimidazole]
% 5-isomer ([2]; standards): 5.875%
% 6-isomer ([2]; standards): 94.125%

COc1ccc2nc([S+]([O-])Cc3ncc(C)c(OC)c3C)[nH]c2c1 (centres unmarked) [Example 1a, 6-methoxy-2-[[(4-methoxy-3,5-dimethyl-2-pyridinyl)methyl]sulfinyl]-1H-benzimidazole]
% 5-isomer ([2]; standards): 0.000%
% 6-isomer ([2]; standards): 100.000%

COc1ccc2[nH]c([S+]([O-])Cc3ncc(C)c(OC)c3C)nc2c1 (centres unmarked) [Example 36, (5)6-methoxy-2-[[(4-methoxy-3,5-dimethyl-2-pyridinyl)-methyl]sulfinyl]-1H-benzimidazole]
% 5-isomer ([2]; standards): 16.005%
% 6-isomer ([2]; standards): 83.995%

COc1ccc2[nH]c([S+]([O-])Cc3ncc(C)c(OC)c3C)nc2c1 (centres unmarked) [Example 37, (5)6-methoxy-2-[[(4-methoxy-3,5-dimethyl-2-pyridinyl)-methyl]sulfinyl]-1H-benzimidazole]
% 5-isomer ([2]; standards): 12.246%
% 6-isomer ([2]; standards): 87.754%

COc1ccc2[nH]c([S+]([O-])Cc3ncc(C)c(OC)c3C)nc2c1 (centres unmarked) [Example 41, (5)6-methoxy-2-[[(4-methoxy-3,5-dimethyl-2-pyridinyl)-methyl]sulfinyl]-1H-benzimidazole]
% 5-isomer ([2]; standards): 16.414%
% 6-isomer ([2]; standards): 83.587%

COc1ccc2[nH]c([S+]([O-])Cc3ncc(C)c(OC)c3C)nc2c1 (centres unmarked) [Example 44, (5)6-methoxy-2-[[(4-methoxy-3,5-dimethyl-2-pyridinyl)-methyl]sulfinyl]-1H-benzimidazole]
% 5-isomer ([2]; standards): 41.258%
% 6-isomer ([2]; standards): 58.742%

COc1ccc2[nH]c([S+]([O-])Cc3ncc(C)c(OC)c3C)nc2c1 (centres unmarked) [Lot 01]
% 5-isomer [2, 4]: 7.50%
% 6-isomer [2, 4]: 92.50%
% 5-isomer ([3]; listed as 01): 6.14%
% 6-isomer ([3]; listed as 01): 93.86%

COc1ccc2[nH]c([S+]([O-])Cc3ncc(C)c(OC)c3C)nc2c1 (centres unmarked) [Lot 02]
% 5-isomer [2, 5]: 8.02%
% 6-isomer [2, 5]: 91.98%
% 5-isomer ([3]; listed as 02): 6.56%
% 6-isomer ([3]; listed as 02): 93.44%

COc1ccc2[nH]c([S+]([O-])Cc3ncc(C)c(OC)c3C)nc2c1 (centres unmarked) [Lot 03]
% 5-isomer [2, 6]: 7.61%
% 6-isomer [2, 6]: 92.39%
% 5-isomer ([3]; listed as 03): 6.40%
% 6-isomer ([3]; listed as 03): 93.60%

COc1ccc2[nH]c([S+]([O-])Cc3ncc(C)c(OC)c3C)nc2c1 (centres unmarked) [USP]
% 5-isomer ([2]; standards): 7.250%
% 6-isomer ([2]; standards): 92.750%
